Measured values reported in paper PMC3960075 (ACS chemical biology, 2012).
“Also recorded” adds a separate entry of the source.

Assays:
[1] = biological target: T1, PAN endonuclease (influenza virus PA N-terminal domain) (Influenza A virus, UniProt Q5EP34); assay type: binding
influenza A/PR/8/34 = experiment: microbe, parasite or virus in culture; assay type: cell-based, avian H1N1 influenza A virus (A/PuertoRico/8/34); conditions: for IC50: Influenza A virus, PR/8, MDCK, read-out: IC50, viral plaque inhibition
in vitro = conditions: dog
immunoglobulin G (IgG) = experiment: Direct binding FP specificity control with IgG; conditions: IgG 2-fold serial dilutions from 100 μM, 4 at 60 nM
[2] = biological target: T1, PAN endonuclease (influenza virus PA N-terminal domain); assay type: binding; remark: listed apart in the source

Structure (SMILES) | FP competitive binding, result in words [1] | IC50 (influenza A/PR/8/34) [µM] | also measured
O=C(O)/C=C/C(=O)c1ccccc1 [Compound 18] | inactive |  | 
C[C@H](NC(=O)c1nc(-c2cnccn2)[nH]c(=O)c1O)c1ccccc1 [Compound 44] |  | 18.61 ± 0.09 | CC50 (in vitro): > 60 µM
CC(C)(C)OC(=O)/C(O)=C/C(=O)c1ccccc1 [Compound 17] | inactivity |  | 
O=C(O)CCC(=O)c1ccccc1 [Compound 19] | no inhibition; also recorded: inactive |  | 
CCC(CC)O[C@@H]1C=C(C(=O)O)C[C@H](N)[C@H]1NC(C)=O [oseltamivir carboxylate, reference compound] |  |  | inhibition of viral plaque formation (influenza A/PR/8/34): 100%
O=C(NCCc1ccccc1)c1nc(-c2cnccn2)[nH]c(=O)c1O [Compound 43] |  | > 100 | Inhibition of viral plaque formation, result in words (influenza A/PR/8/34): inactive
COc1ccc2c(c1)CC(C(=O)C(=O)O)=C2O [Compound 15] | inactive |  | 
O=C(O)c1nc(-c2cnccn2)nc(O)c1O [Compound 31] |  | > 50 | 
COC(=O)/C(O)=C/C(=O)c1ccccc1 [Compound 16, reference compound] | inactivity | > 100 | Inhibition of viral plaque formation, result in words (influenza A/PR/8/34): inactive
CC(NC(=O)c1nc(-c2cnccn2)[nH]c(=O)c1O)c1ccccc1 (centres unmarked) [Compound 42] |  | 14.28 ± 0.07 | CC50 (in vitro): > 60 µM
O=C(O)C(=O)C1=C(O)c2ccccc2OC1 [Compound 14] | inactive |  | 
C[C@@H](NC(=O)c1nc(-c2cnccn2)[nH]c(=O)c1O)c1ccccc1 [Compound 45] |  | 12.68 ± 0.08 | CC50 (in vitro): > 60 µM
O=C(O)/C(O)=C/C(=O)C1(Cc2ccc(Cl)cc2)CCN(Cc2ccccc2)CC1 [Compound 2, reference compound] |  | 3.13 ± 0.08 | inhibition (displacement of 4 from PAN) ([1]; 250 µM): 100%
O=C(O)/C(O)=C/C(=O)c1cccnc1 [Compound 13] | inactive |  | 
O=C(O)/C(O)=C/C(=O)C1(Cc2ccc(Cl)cc2)CCN(C(=O)c2ccc(-c3c4ccc(=O)cc-4oc4cc(O)ccc34)c(C(=O)O)c2)CC1 [Compound 4] |  |  | Non-specific binding to IgG (immunoglobulin G (IgG)): not observed; dynamic range [2]: 124.3 ± 0.9 mP
